Experimental data as given in ChEMBL document CHEMBL4014340, “Identification of a Potent, Selective, and Efficacious Phosphatidylinositol 3-Kinase δ (PI3Kδ) Inhibitor for the Treatment of Immunological Disorders” (J Med Chem, 2017).

Key:
[1] = Metabolic stability in rat liver microsomes assessed as parent compound remaining at 0.5 uM preincubated for 6 mins followed by NADPH addition measured after 10 mins by LC-MS/MS analysis; assay type: ADME, microsome; conditions: read-out: Stability
[2] = Metabolic stability in mouse liver microsomes assessed as parent compound remaining at 0.5 uM preincubated for 6 mins followed by NADPH addition measured after 10 mins by LC-MS/MS analysis; assay type: ADME, microsome; conditions: read-out: Stability
[3] = Metabolic stability in human liver microsomes assessed as parent compound remaining at 0.5 uM preincubated for 6 mins followed by NADPH addition measured after 10 mins by LC-MS/MS analysis; assay type: ADME, microsome; conditions: read-out: Stability
[4] = Half life in mouse liver microsomes aat 0.5 uM preincubated for 6 mins followed by NADPH addition measured after 10 mins by LC-MS/MS analysis; assay type: ADME, microsome
[5] = AUC (0 to 24 hrs) in Balb/c mouse at 30 mg/kg, po; assay type: ADME, organism-based; set-up: dose 30 mg/kg, time < 24 hr, route oral; conditions: in vivo
[6] = Half life in human liver microsomes aat 0.5 uM preincubated for 6 mins followed by NADPH addition measured after 10 mins by LC-MS/MS analysis; assay type: ADME, microsome
[7] = Half life in rat liver microsomes aat 0.5 uM preincubated for 6 mins followed by NADPH addition measured after 10 mins by LC-MS/MS analysis; assay type: ADME, microsome
[8] = AUC (0 to 24 hrs) in Balb/c mouse at 100 mg/kg, po; assay type: ADME, organism-based; set-up: dose 100 mg/kg, time < 24 hr, route oral; conditions: in vivo

| Compound | remaining at 10 min, 0.5 µM [1] | remaining at 10 min, 0.5 µM [2] | remaining at 10 min, 0.5 µM [3] | half-life at 0.5 µM [4] | AUC(0-t) at 24 h [5] | half-life at 0.5 µM [6] | half-life at 0.5 µM [7] | AUC(0-t) at 24 h [8] |
| --- | --- | --- | --- | --- | --- | --- | --- | --- |
| CC(=O)N1CCN(c2cccc(-c3cc(-c4ccnn4C4CCOCC4)c4c(N)ncnn34)c2)C(=O)C1(C)C | 81% | 53% | 77% |  |  |  |  |  |
| CC(=O)N1CCN(c2cc(-c3cc(C(F)(F)F)c4c(N)ncnn34)ccc2S(C)(=O)=O)C(=O)C1(C)C | 96% | 97% | 96% |  |  |  |  |  |
| CC(=O)N1CCN(c2cccc(-c3cc(Cl)c4c(N)ncnn34)c2)C(=O)C1(C)C | 57% | 17% | 100% | 4 min | 2.9 µM·h | > 120 min | 16 min | 17 µM·h |
| CC(=O)N1C[C@@H](C)N(c2cc(-c3cc(C(F)(F)F)c4c(N)ncnn34)ccc2C#N)C(=O)C1(C)C | 43% | 23% | 90% |  |  |  |  |  |
| CC(=O)N1CCN(c2cc(-c3cc(C(F)(F)F)c4c(N)ncnn34)ccc2C(C)O)C(=O)C1(C)C (racemic) | 100% | 100% | 100% |  |  |  |  |  |
| CC(=O)N1CCN(c2cc(C)cc(-c3cc(Cl)c4c(N)ncnn34)c2)C(=O)C1(C)C | 100% | 45% | 92% |  |  |  |  |  |
| CC(=O)N1CCN(c2cccc(-c3cc(Cl)c4c(N)ncnn34)c2C)C(=O)C1(C)C | 19% | 1% | 84% |  |  |  |  |  |
| CC(=O)N1CCN(c2cc(-c3cc(Cl)c4c(N)ncnn34)ccc2C(C)O)C(=O)C1(C)C (racemic) | 100% | 100% | 100% |  |  |  |  |  |

The next lines start with the values.

| remaining at 10 min, 0.5 µM [1] | remaining at 10 min, 0.5 µM [2] | remaining at 10 min, 0.5 µM [3] | half-life at 0.5 µM [4] | AUC(0-t) at 24 h [5] | half-life at 0.5 µM [6] | half-life at 0.5 µM [7] | AUC(0-t) at 24 h [8] | Compound |
| --- | --- | --- | --- | --- | --- | --- | --- | --- |
| 91% | 94% | 94% |  |  |  |  |  | COc1ccc(-c2cc(Cl)c3c(N)ncnn23)cc1N1CCN(C(C)=O)C(C)(C)C1=O |
| 60% | 66% | 82% |  |  |  |  |  | CC(=O)N1CCN(c2cc(-c3cc(Cl)c4c(N)ncnn34)ccc2C)C(=O)C1(C)C |
| 52% | 67% | 85% |  |  |  |  |  | CC(=O)N1CCN(c2cc(-c3cc(Cl)c4c(N)ncnn34)ccc2Cl)C(=O)C1(C)C |
